# Test results reported in ChEMBL document CHEMBL1133731, “Novel potent ligands for the central nicotinic acetylcholine receptor: synthesis, receptor binding, and 3D-QSAR analysis” (J Med Chem, 2000).
# Biological target: T1, Neuronal acetylcholine receptor; alpha4/beta2 (Rattus norvegicus, UniProt P09483+P12390)
# Test: In vitro binding affinity for Nicotinic acetylcholine receptor alpha4-beta2 in rat cerebral cortical membrane using [3H]cytisine as radioligand
# Assay type: cell membranes
# Conditions: not given
# T1 sequence (P09483 whole entry): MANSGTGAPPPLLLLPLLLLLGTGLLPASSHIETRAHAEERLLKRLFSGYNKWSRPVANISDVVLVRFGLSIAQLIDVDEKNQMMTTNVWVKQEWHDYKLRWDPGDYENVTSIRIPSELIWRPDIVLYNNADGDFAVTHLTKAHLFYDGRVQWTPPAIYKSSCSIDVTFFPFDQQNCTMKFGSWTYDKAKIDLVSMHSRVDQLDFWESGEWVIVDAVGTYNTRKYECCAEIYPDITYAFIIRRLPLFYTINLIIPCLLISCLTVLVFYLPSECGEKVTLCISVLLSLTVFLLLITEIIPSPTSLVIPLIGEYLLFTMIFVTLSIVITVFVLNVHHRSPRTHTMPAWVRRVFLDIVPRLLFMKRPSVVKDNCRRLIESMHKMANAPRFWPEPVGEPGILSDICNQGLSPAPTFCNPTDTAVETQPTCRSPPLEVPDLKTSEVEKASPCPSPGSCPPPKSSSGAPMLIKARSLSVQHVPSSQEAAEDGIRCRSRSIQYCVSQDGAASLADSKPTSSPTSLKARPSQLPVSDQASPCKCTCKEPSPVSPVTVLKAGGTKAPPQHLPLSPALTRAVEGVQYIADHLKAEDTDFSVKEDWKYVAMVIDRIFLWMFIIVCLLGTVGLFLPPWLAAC
# T1 sequence (P12390 whole entry): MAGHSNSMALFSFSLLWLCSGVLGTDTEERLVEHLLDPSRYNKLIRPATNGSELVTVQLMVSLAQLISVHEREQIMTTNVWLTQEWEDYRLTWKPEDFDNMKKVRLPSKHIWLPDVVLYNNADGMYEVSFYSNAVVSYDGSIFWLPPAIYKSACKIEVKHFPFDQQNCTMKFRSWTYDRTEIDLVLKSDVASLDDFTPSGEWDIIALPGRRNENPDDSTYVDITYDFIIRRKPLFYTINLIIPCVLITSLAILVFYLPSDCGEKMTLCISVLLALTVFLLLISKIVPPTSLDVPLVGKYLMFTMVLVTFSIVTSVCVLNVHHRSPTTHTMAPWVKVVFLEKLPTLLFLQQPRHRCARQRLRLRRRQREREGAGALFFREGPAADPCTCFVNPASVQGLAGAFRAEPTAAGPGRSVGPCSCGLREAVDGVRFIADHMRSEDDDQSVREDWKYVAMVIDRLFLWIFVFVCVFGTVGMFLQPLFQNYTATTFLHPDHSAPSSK
row,Compound,IC50
1,c1cncc(OC[C@@H]2CCN2)c1,1.5 nM

# Same assay, conditions: read-out: IC50
row,Compound,IC50
1,Clc1cncc(OC2CCNC2)c1 (configuration not stated),220 nM
2,Nc1cccc(-c2cncc(N3CCCNCC3)c2)c1,4 nM
3,COc1cncc(N2CCCNCC2)c1,1.9 nM
4,COc1ccc(N2CCCNCC2)cn1,170 nM
5,NC(=O)c1cncc(N2CCCNCC2)c1,20 nM
6,C1=CC(CSc2cncc(N3CCCNCC3)c2)C=C1,8 nM
7,COCCOc1cncc(N2CCCNCC2)c1,2.4 nM
8,OCCOc1cncc(N2CCCNCC2)c1,1.8 nM
9,COc1cc(N2CCCNCC2)cnc1OC,170 nM
10,c1cncc(OC2CCNC2)c1 (configuration not stated),100 nM
11,CCSc1ccc(N2CCCNCC2)cn1,170 nM
12,c1ccc2nc(-c3cncc(N4CCCNCC4)c3)ccc2c1,6.6 nM
13,c1cncc(-c2cncc(N3CCCNCC3)c2)c1,2.8 nM
14,c1ccc(Sc2cncc(N3CCCNCC3)c2)cc1,4 nM
15,CC(C)COc1cncc(N2CCCNCC2)c1,2.2 nM
16,c1cncc(OC2CCCNC2)c1 (configuration not stated),190 nM
17,C1=C(c2cccnc2)CC2CCC1N2 (configuration not stated),6.7 nM
18,Oc1cncc(N2CCCNCC2)c1,2.4 nM

# Biological target: T1, Neuronal acetylcholine receptor; alpha4/beta2
# Test: In vitro binding affinity for Nicotinic acetylcholine receptor alpha4-beta2 (alpha4 beta-2 subtype of nAChRs) in rat cerebral cortical membrane using [3H]-cytisine as radioligand
# Assay type: cell membranes
# Conditions: not given
row,Compound,IC50
1,COc1cc(N2CCCNCC2)cnc1Cl,0.68 nM
2,C=COc1cncc(N2CCCNCC2)c1,5 nM
3,CCOc1cc(N2CCCNCC2)cnc1Br,0.87 nM
